Data published in patent publication US11001591B2, “TRAF 6 inhibitors” (HELMHOLTZ ZENTRUM MUENCHEN—DEUTSCHES FORSCHUNGSZENTRUM FÜR …, priority 2016, dated 2021).

Legend:
[1] = target: interaction of Ubc13 with Uev1a (Homo sapiens, UniProt P61088+Q13404); assay: Ubc13-Uev1a interaction; type: binding
IKK kinase activity = assay: IKK kinase assay in Jurkat T-cells; type: cell-based, human; settings: PMA/Ionomycin
Experimental: For MEF cells, 5.5×10^5 cells were seeded, then treated with compound for 6 hours and eventually stimulated with IL-1β or TNFα for 8 minutes. 1×10^6 Jurkat T-cells were treated with compound for 6 hours and finally stimulated with PMA (400 ng/ml) and lonomycin (600 ng/ml) for 8 minutes. After cell lysis in Co-IP lysis buffer (150 mM NaCl; 25 mM Hepes (pH 7.5); 0.2% NP-40; 1 mM Glycerol; 10 mM NaF; 8 mM β-Glycerophosphat; 1 mM DTT; 300 μM Sodium-vanadate; complete protease inhibitor), input samples were taken and the supernatant was then incubated with 6 μL IKKγ antibody FL-419 (Santa Cruz Biotechnology). Upon incubation with Protein-G-Sepharose beads (GE Healthcare), beads were washed in Co-IP wash buffer (150 mM NaCl; 25 mM Hepes (pH 7.5); 0.2% NP-40; 1 mM Glycerol) and transferred into kinase reaction buffer ([…] HEPES pH7.9; 10 mM MgCl2; 20 μM ATP; 20 mM β-Glycerophosphat; 200 μM Sodium-Vanadate; 1 mM DTT) supplemented with […] GST-IκBα (1-53) and 0.5 μL ^32P-γ-ATP. After 30 minutes incubation at 37° C., reaction was stopped and analyzed by autoradiography as well as Western Blot after separation on SDS-PAGE.

[2] = test system: HBL1 (ABC-DLBCL-MYD88 L265P); assay: Cell viability in DLBCL, HBL1; type: cell-based; settings: 30 μM added at day 0, 4 and 8; 9 days
Experimental: To determine the effects of C25-140 on MYD88-dependent ABC-DLBCL, we chose the HBL1 (ABC-DLBCL-MYD88 L265P), U2932 (ABC DLBCL-MYD88 wt) and BJAB (GCB DLBCL) cell lines. 1×10^6 cells of each cell line was seeded in 5 ml and treated with 30 μM compound C25-140 (compound 3) or DMSO. The entire experiment was carried out for 9 days. Every day 500 μl were taken and viable cell number was acquired using the ViCEII cell counter (Beckmann Coulter). At days 4 and 8 of the experiment the volume was again adjusted to 5 ml and samples were supplemented with 30 μM compound C25-140 or DMSO. This process was necessary to ensure linear proliferation of DMSO treated cells. All curves of C25-140 treated samples were referred to the corresponding DMSO treated controls.

[3] = test system: 78 oncological cell lines and control cell lines HS-5 and MCF 10A; assay: Omniscreen cancer cell line panel, CellTiter-Glo; type: cell-based; settings: nine concentrations, top 80 μM, 72 hours
Experimental: The effect of C25-140 on cell viability of 80 cancer cell lines using the CellTiter-Glo luminescent cell viability assay was conducted at CrownBioscience Inc. at the testing facility in Beijing. Here, 80 selected cell lines were cultured in media supplemented with 10-15% FBS, in the temperature of 37° C., 5% CO2 and 95% humidity. Culture medium was purchased from GIBCO or Sigma, USA. The cells were treated with C25-140 in 9 dose levels starting at 80 μM with 3.16-fold serial dilutions. Cisplatin served as a reference control and started with a top working concentration of 100 μM. Test samples were incubated for 72 hours and cell viability was measured by the CellTiter-Glo assay.

IL-2 and TNFα = assay: mRNA expression of TCR target genes in Jurkat T-cells; type: cell-based, human; settings: PMA/Ionomycin
Experimental: For MEF cells, 1.2×10^5 cells per sample were seeded, treated with compound for 6 hours and stimulated with either IL-1β or TNFα for 60 minutes. Jurkat T-cells and primary mouse CD4^+ T-cells were seeded at 2×10^5 cells per sample, also treated with compound for 6 hours and stimulated with PMA/lonomycin for 3 hours. RNA was isolated according to the manufacturer's protocol of the Qiagen RNeasy Kit (MEF cells) or the STRATEC INVITRAP® SPIN UNIVERSAL RNA MINI KIT (Jurkat T-cells). The isolation of mRNA from […] white adipose tissue from DIO mice was performed using TRIzol® Reagent according to manufacturer's instruction. To clear the isolated RNA from genomic DNA, samples (up to 5 μg RNA) were treated with RQ1 RNase-Free DNaseI (Promega) as described in the technical manual. For the reverse transcription of RNA into cDNA, the DNaseI digested RNA samples were processed using the SuperScript III First Strand cDNA Synthesis System (Invitrogen/ThermoFisher Scientific) following the manufacturer's protocol. […] For quantification of cDNA in the samples, the LightCylcer480 (Roche) and the KAPA SYBR FAST qPCR Kit were used. For relative quantification, the ΔΔCp method first described by Pfaffl (Pfaffl, M. W., A new mathematical model for relative quantification in real-time RT-PCR. Nucleic Acids Res, 2001. 29(9): p. e45) was applied.

interaction of Ubc13 with Uev1a, sequence (P61088 whole entry): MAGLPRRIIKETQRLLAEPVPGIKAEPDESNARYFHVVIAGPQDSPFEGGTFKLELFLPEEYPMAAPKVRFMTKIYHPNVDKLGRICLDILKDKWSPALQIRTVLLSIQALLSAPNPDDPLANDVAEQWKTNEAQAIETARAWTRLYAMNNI
interaction of Ubc13 with Uev1a, sequence (Q13404 whole entry): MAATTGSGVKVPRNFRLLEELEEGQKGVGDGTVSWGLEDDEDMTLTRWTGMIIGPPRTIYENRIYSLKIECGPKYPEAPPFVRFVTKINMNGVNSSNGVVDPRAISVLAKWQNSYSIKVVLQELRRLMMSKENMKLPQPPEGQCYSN

Structure (SMILES): Cc1nn(-c2ccc3nnc(C)n3n2)c(C)c1CCC(=O)N1CCC(Cc2ccccc2)CC1 [Compound 3, 1-(4-benzylpiperidin-1-yl)-3-(3,5-dimethyl-1-(3-methyl-[1,2,4]triazolo[4,3-b]pyridazin-6-yl)-1H-pyrazol-4-yl)propan-1-one]
- binding of Ubc13 to Uev1a [1]: did not affect
- IKK kinase activity (IKK kinase activity): diminished
- viability (cell count) [2]: significantly reduced
- viability of cancer cell lines [3]: major effect is on cancer cells of blood origin
- viability of control cell lines HS-5 and MCF 10A [3]: not affected at all
- mRNA levels of IL-2 and TNFα (IL-2 and TNFα): dose-dependently decreased
